Measured values as given in PMC3527451, “A Pilot Randomized, Placebo Controlled, Double Blind Phase I Trial of the Novel SIRT1 Activator SRT2104 in Elderly Volunteers” (PLoS ONE, 2012).
Entries after “also recorded” stand apart in the source; their conditions may differ. Read-outs that look alike come from different tables or passages of the source.

Experiments:
[1] = system: elderly male and female volunteers; test: MRI of subcutaneous and visceral adipose tissue; type: in vivo, human; conditions: active treatment relative to placebo
Experimental: Magnetic Resonance Imaging (MRI) was also carried out on a clinical Siemens 3T Tim Trio (Siemens Healthcare, Erlangen, Germany). The torso was imaged using the 6-channel spine array and two 4-channel body array coils. The data were acquired using a 3D spoiled gradient echo sequence with partial Fourier acquisitions (VIBE). The imaging volume consisted of contiguous 3D slabs (voxel size of 1.4×1.4×5 mm3) acquired in a single 15 s end-expiration breath-hold (repetition time = 7 ms; echo times TEs = 2.45, 3.67 ms; flip angle = 10°; 450 mm field-of-view; GRAPPA factor 2). […] Fat-only images in the abdomen were manually segmented into intra-abdominal adipose tissue (IAT) and abdominal subcutaneous adipose tissue (SAT). The abdominal area was defined by using anatomical landmarks (top of the femoral heads to the bottom of the right lung). All images were anonymized and blinded to time point, but not to subject in order to facilitate matching anatomical landmarks, and sent to a third party (Vardis Group Inc, London), who derived the adipose tissue volumes using Slice-O-Matic (Tomovision, Montreal, Canada) software. Analysis of compartmental fat distribution was performed for subcutaneous adipose tissue (SAT), visceral adipose tissue (VAT), and the ratio of SAT:VAT, using an ANOVA model with treatment group as a factor.

[2] = system: elderly male and female volunteers; test: Maximal aerobic capacity test (incremental cycle ergometer); type: in vivo, human
Experimental: A stepwise incremental exercise test was performed on a cycle ergometer (Monarch 874E, Monark Exercise AB, Vansbro, Sweden). All participants were familiarized to the test procedure on a separate occasion prior to testing. Participants were seated in a standardized position. The test started with unloaded cycling, subjects were asked to maintain a cadence of 50 revolutions per minute (rpm), if the subject could not achieve 50 rpm they were encouraged to cycle as fast as the could (but not less than 40 rpm). Every two minutes the external load on the cycle ergometer was increased by 0.5 kg, this equated to a 25-Watt increase in workload at 50 rpm. Cardiac monitoring of heart rate, respiratory rate/minute ventilation and pulse oximeter for oxygen saturation were continuously recorded during the test.
Analysis of Maximal Aerobic Capacity parameters was performed using an ANOVA model with treatment group as a factor. Workload was progressed in 2-minute staged increments from an initial 3 minutes unloaded cycling, to exhaust subjects over a 6- to 10-min period. The test was terminated when the participant reached volitional exhaustion or their cadence dropped by 10 rpm. At the end of each increment, work-rate watts, rating of perceived exertion (Borg RPE scale), heart rate (Polar Vantage chest heart rate monitor, Polar Electro, Finland) and 3-lead ECG were recorded.

CYP1A [3] = conditions: human liver microsomes; cited from earlier work
CYP2C9 = conditions: human liver microsomes; cited from earlier work
CYP2C19 = conditions: human liver microsomes; cited from earlier work
CYP2D6 = conditions: human liver microsomes; cited from earlier work
CYP3A4 [4] = conditions: human liver microsomes; cited from earlier work
CYP1A [5] = system: CYP1A; parameters: method as in ref 17, 18 (a number printed in a supplementary file, which may have a reference list of its own: not looked up in the article's list); conditions: cultured hepatocytes, at the concentrations tested; cited from earlier work
CYP3A4 [6] = system: CYP3A4; parameters: method as in ref 17, 18 (a number printed in a supplementary file, which may have a reference list of its own: not looked up in the article's list); conditions: cultured hepatocytes, at the concentrations tested; cited from earlier work
healthy male volunteers = conditions: young healthy volunteers, up to 7 days dosing of 0.03–3.0 g/day; cited from earlier work
SIRT1 = system: SIRT1; parameters: method as in JC Milne et al, 2007; conditions: lowering of the Km for acetylated protein substrate; ref JC Milne et al, 2007; cited from earlier work
39 common receptors = system: 39 common receptors; parameters: method as in SRT2104 Investigator's Brochure; conditions: in vitro; ref SRT2104 Investigator's Brochure; cited from earlier work
rat = system: rat; parameters: method as in SRT2104 Investigator's Brochure; conditions: ref SRT2104 Investigator's Brochure, cited from earlier work; for NOAEL: 28 days
healthy male subjects = system: healthy male subjects; parameters: method as in SRT-2104-002; conditions: 250 mg oral suspension and intravenous microdose of 100µg 14C-SRT2104, eight healthy male subjects; ref SRT-2104-002; cited from earlier work
SIRT2 = conditions: SIRT1 activation over SIRT2; ref SRT2104 Investigator's Brochure; cited from earlier work
SIRT3 = conditions: SIRT1 activation over SIRT3; ref SRT2104 Investigator's Brochure; cited from earlier work

Cc1nc(-c2cccnc2)sc1C(=O)Nc1ccccc1-c1cn2c(CN3CCOCC3)csc2n1 [SRT2104]
subcutaneous (SAT) and visceral (VAT) adipose tissue volumes and VAT:SAT ratio [1]: No consistent changes from baseline
RPE, range of change from baseline ([2]; 0.5g/day, day 27): -3-6
TTC, range of change from baseline ([2]; 0.5g/day, day 27): -106 to 67 s
TTC, mean change from baseline (SD) ([2]; 0.5g/day, day 27, p 0.004): -31 (50) sec
RPE, mean change from baseline (SD) ([2]; 0.5g/day, day 27, p 0.962): 0 (3)
decrease in exercise capacity (time to cessation for the staged bicycle assessment) ([2]; 0.5 g/day, day 27, p = 0.004): 4%
RPE, range of change from baseline ([2]; 2.0g/day, day 27): -3-1
TTC, range of change from baseline ([2]; 2.0g/day, day 27): -29 to 45 s
change in exercise capacity ([2]; 2.0g/day, day 27): no evidence for any changes
TTC, mean change from baseline (SD) ([2]; 2.0g/day, day 27, p 0.292): 9 (27) sec
RPE, mean change from baseline (SD) ([2]; 2.0g/day, day 27, p 0.638): -1 (2)
inhibition of CYP1A (CYP1A [3]): not an inhibitor; also recorded: does not inhibit
inhibition of CYP2C9 (CYP2C9): not an inhibitor; also recorded: does not inhibit
inhibition of CYP2C19 (CYP2C19): not an inhibitor; also recorded: does not inhibit
inhibition of CYP2D6 (CYP2D6): not an inhibitor; also recorded: does not inhibit
inhibition of CYP3A4 (CYP3A4 [4]): not an inhibitor; also recorded: does not inhibit
induction of CYP1A (CYP1A [5]): not a significant inducer
induction of CYP3A4 (CYP3A4 [6]): not a significant inducer
tolerability (healthy male volunteers): well tolerated and safe
increase in SIRT1 activity (SIRT1): approximately two-fold increase in activity
inhibitory activity against 39 common receptors (39 common receptors): no significant inhibitory activity
vacuolation of pancreatic acinar cells, animals affected (rat; female rat, Day 29, not seen after 4 weeks recovery): 3/10
NOAEL (rat; female rats): 1000 mg/kg
NOAEL (rat; male rats, highest dose tested): 2000 mg/kg
tolerability (rat; rat, up to 2.0 g/kg for 28 days): well tolerated at all doses
tolerability (healthy male subjects): well-tolerated
fold selectivity as compared to SIRT2 (SIRT2): > 100
fold selectivity as compared to SIRT3 (SIRT3): > 100
